For 38 compounds, EC50 results are on record in ChEMBL document CHEMBL1153748 (J Med Chem, 2010).

The EC50 is the midpoint of the concentration-response curve.

The target of assay [1] is T1, Peroxisome proliferator-activated receptor alpha (Homo sapiens, UniProt Q07869).
T1 sequence (Q07869 whole entry): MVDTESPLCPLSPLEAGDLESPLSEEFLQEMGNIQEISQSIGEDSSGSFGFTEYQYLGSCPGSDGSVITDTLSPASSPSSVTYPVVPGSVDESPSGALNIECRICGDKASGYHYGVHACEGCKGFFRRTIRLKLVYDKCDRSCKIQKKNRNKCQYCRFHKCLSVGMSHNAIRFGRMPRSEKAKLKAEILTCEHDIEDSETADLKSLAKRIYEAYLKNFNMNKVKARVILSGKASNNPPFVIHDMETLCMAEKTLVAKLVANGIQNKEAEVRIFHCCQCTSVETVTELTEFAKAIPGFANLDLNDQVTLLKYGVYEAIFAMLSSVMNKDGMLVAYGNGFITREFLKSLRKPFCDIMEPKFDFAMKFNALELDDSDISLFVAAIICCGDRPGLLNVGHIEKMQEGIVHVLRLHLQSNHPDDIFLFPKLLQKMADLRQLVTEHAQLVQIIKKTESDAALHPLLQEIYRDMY
Nature of the assay: Agonist activity at human PPARalpha ligand binding domain expressed in human 293T cells co-transfected with Gal4-DBD by luciferase transactivation assay. The format is cell-based. The settings on record: read-out: EC50.

The target in assay [2] is T2, Peroxisome proliferator-activated receptor gamma (Homo sapiens, UniProt P37231).
T2 sequence (P37231 whole entry): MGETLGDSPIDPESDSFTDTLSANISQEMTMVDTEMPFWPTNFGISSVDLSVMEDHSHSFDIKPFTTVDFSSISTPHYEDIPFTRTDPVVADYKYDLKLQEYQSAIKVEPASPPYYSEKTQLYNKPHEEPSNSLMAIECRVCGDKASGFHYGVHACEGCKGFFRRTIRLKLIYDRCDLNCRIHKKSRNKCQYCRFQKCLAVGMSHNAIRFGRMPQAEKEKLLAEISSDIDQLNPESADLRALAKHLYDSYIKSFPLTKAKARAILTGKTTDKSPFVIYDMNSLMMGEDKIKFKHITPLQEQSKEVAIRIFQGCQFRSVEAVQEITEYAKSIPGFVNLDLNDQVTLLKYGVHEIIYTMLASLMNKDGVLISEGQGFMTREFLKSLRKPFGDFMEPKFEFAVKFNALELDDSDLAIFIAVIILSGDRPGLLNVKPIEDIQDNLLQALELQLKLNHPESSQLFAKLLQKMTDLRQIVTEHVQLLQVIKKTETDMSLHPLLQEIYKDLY
The format is cell-based, 293T. As to conditions: read-out: EC50.

Assay [3] has as its target T3, Peroxisome proliferator-activated receptor delta (Homo sapiens, UniProt Q03181).
T3 sequence (Q03181 whole entry): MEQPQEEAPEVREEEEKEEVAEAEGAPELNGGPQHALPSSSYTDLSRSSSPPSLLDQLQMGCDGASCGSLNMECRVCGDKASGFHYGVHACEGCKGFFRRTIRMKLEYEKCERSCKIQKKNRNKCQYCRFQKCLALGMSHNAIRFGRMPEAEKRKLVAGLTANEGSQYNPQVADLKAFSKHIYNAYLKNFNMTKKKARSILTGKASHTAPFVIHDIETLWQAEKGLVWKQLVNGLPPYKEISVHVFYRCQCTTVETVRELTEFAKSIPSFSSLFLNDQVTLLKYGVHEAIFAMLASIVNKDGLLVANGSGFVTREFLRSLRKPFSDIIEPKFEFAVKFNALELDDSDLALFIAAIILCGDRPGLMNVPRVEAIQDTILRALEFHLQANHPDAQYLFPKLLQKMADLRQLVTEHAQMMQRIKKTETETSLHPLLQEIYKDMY

Molecules are shown by their SMILES.

In the case of `COc1ccc(-c2nc(COc3ccc(OCC(=O)O)c(C)c3)sc2/C=C/c2ccccc2)cc1`, the EC50 in assay [1] is above 10 µM; in assay [2] it was above 10 µM; in assay [3] it was 0.11 µM.

For the compound `Cc1cc(OCc2nc(-c3ccc(-c4ccccc4)cc3)c(-c3ccc(-c4ccccc4)cc3)s2)ccc1OCC(=O)O`, the results for the EC50 in assay [1], in assay [2] and in assay [3] were above 10 µM, above 10 µM and 0.13 µM, respectively.

In the case of `COc1ccc(-c2nc(COc3ccc4c(c3)CC(C(=O)O)O4)sc2-c2ccc(C(F)(F)F)cc2)cc1` (centres undefined), the values for the EC50 in assay [1], in assay [2] and in assay [3] were above 10 µM, above 10 µM and 0.46 µM, respectively.

With `COc1ccc(-c2nc(COc3ccc(OCC(=O)O)c(C)c3)sc2-c2ccc(OC)cc2)cc1`, the EC50 is above 10 µM in assay [1], above 10 µM in assay [2] and 0.1 µM in assay [3].

On to `COc1ccc(-c2nc(COc3ccc(CC(=O)O)c(C)c3)sc2-c2ccc(C(F)(F)F)cc2)cc1`, for which the figures for the EC50 in assay [1], in assay [2] and in assay [3] were above 10 µM, above 10 µM and 0.14 µM, respectively.

Take `Cc1cc(OCc2nc(-c3ccc(OCC(C)C)cc3)c(-c3ccc(OC(F)(F)F)cc3)s2)ccc1OCC(=O)O`: the EC50 in assay [1] was above 10 µM; in assay [2], above 10 µM; in assay [3] it was 0.063 µM.

Take `Cc1cc(OCc2nc(-c3ccc(C(F)(F)F)cc3)c(-c3ccc(C(F)(F)F)cc3)s2)ccc1OCC(=O)O`: the results for the EC50 in assay [1], in assay [2] and in assay [3] were above 10 µM, above 10 µM and 0.35 µM, respectively.

Consider `COc1ccc(-c2nc(COc3ccc(OCC(=O)O)c(C)c3)sc2-c2ccc(-c3ccccc3)c(C(F)(F)F)c2)cc1`, for which the EC50 in assay [1] is above 10 µM; in assay [2], above 10 µM; in assay [3], 0.25 µM.

Take `Cc1cc(OCc2nc(-c3ccc(C(F)(F)F)cc3)c(-c3ccc(OC(F)(F)F)cc3)s2)ccc1OCC(=O)O`: the EC50 in assay [1] is above 10 µM; in assay [2], above 10 µM; in assay [3] it was 0.331 µM.

On to `COc1ccc(-c2nc(COc3ccc(OCC(=O)O)c(C)c3)sc2-c2ccc(C(F)(F)F)cc2)cc1`, for which the EC50 in assay [1] is above 10 µM; in assay [2], above 10 µM; in assay [3] it was 0.04 µM.

Take `COc1ncc(-c2nc(COc3ccc(OCC(=O)O)c(C)c3)oc2-c2ccc(OC(F)(F)F)cc2)cn1`: the EC50 is above 10 µM in assay [1], above 10 µM in assay [2] and 0.014 µM in assay [3].

As for `COc1ccc(-c2nc(COc3ccc(OCC(=O)O)c(C)c3)sc2-c2ccc(Cl)nc2)cc1`, the values for the EC50 in assay [1], in assay [2] and in assay [3] were above 10 µM, above 10 µM and 0.88 µM, respectively.

For the compound `COc1ccc(-c2nc(COc3ccc(OCC(=O)O)c(C)c3)sc2-c2ccc3ccccc3c2)cc1`, the EC50 is above 10 µM in assay [1], above 10 µM in assay [2] and 0.02 µM in assay [3].

On to `CCC(C)Oc1ccc(-c2nc(COc3ccc(OCC(=O)O)c(C)c3)sc2-c2ccc(OC(F)(F)F)cc2)cc1` (centres undefined), for which the EC50 in assay [1] was above 10 µM; in assay [2] it was above 10 µM; in assay [3] it was 0.018 µM.

As to `COc1ccc(-c2nc(COc3ccc(OCC(=O)O)c(C)c3)sc2-c2cnc3ccccc3c2)cc1`, the EC50 in assay [1] is above 10 µM; in assay [2] it was above 10 µM; in assay [3], 0.08 µM.

Turning to `COc1ccc(-c2nc(CSc3ccc(CC(=O)O)cc3Cl)sc2-c2ccc(C(F)(F)F)cc2)cc1`, the EC50 in assay [1] is above 10 µM; in assay [2], above 10 µM; in assay [3], 0.062 µM.

For `O=C(O)Cc1cccc(-c2noc(-c3ccccc3)c2C(=O)NCCOc2cc(Cl)cc(Cl)c2)c1`, the EC50 in assay [1] was above 10 µM; in assay [2], above 10 µM; in assay [3], 0.07 µM.

Take `COc1ccc(-c2nc(COc3ccc4c(CC(=O)O)cccc4c3)sc2-c2ccc(C(F)(F)F)cc2)cc1`: the EC50 in assay [1] was above 10 µM; in assay [2] it was above 10 µM; in assay [3], 0.74 µM.

As for `Cc1ccc(-c2sc(COc3ccc(OCC(=O)O)c(C)c3)nc2C)cc1`, the EC50 was above 10 µM in assay [1], above 10 µM in assay [2] and 6.32 µM in assay [3].

Consider `COc1ccc(-c2nc(COc3ccc(CC(=O)O)cc3Cl)sc2-c2ccc(C(F)(F)F)cc2)cc1`, for which the EC50 in assay [1] was above 10 µM; in assay [2] it was above 10 µM; in assay [3], 0.48 µM.

With `COc1ccc(-c2nc(COc3ccc(CC(=O)O)cc3)sc2-c2ccc(C(F)(F)F)cc2)cc1`, the EC50 is above 10 µM in assay [1], above 10 µM in assay [2] and 1.3 µM in assay [3].

With `Cc1cc(OC/C=C(\C#Cc2ccc(C(F)(F)F)cc2)c2ccc(Br)cc2)ccc1OCC(=O)O`, the values for the concentration for a half-maximal effect (EC50) in assay [1], in assay [2] and in assay [3] were above 10 µM, above 10 µM and 0.13 µM, respectively.

With `Cc1cc(OCc2nc(-c3ccc(C(=O)N(C)C)cc3)c(-c3ccc(OC(F)(F)F)cc3)s2)ccc1OCC(=O)O`, the EC50 in assay [1] is above 10 µM; in assay [2], above 10 µM; in assay [3] it was 0.023 µM.

As for `Cc1ccc(-c2csc(COc3ccc(OCC(=O)O)c(C)c3)n2)cc1`, the EC50 in assay [1], in assay [2] and in assay [3] was above 10 µM throughout.

As to `COc1ccc(-c2nc(COc3ccc(OCC(=O)O)c(C)c3)sc2-c2ccccc2C(F)(F)F)cc1`, the EC50 in assay [1], in assay [2] and in assay [3] was above 10 µM each time.

In the case of `Cc1cc(OCc2nc(-c3ccc4c(c3)OCO4)c(-c3ccc(OC(F)(F)F)cc3)s2)ccc1OCC(=O)O`, the EC50 in assay [1] is above 10 µM; in assay [2], above 10 µM; in assay [3], 0.031 µM.

Take `Cc1cc(OCc2nc(-c3ccc(N4CCOCC4)nc3)c(-c3ccc(OC(F)(F)F)cc3)s2)ccc1OCC(=O)O`: the EC50 in assay [1] was above 10 µM; in assay [2], above 10 µM; in assay [3], 0.018 µM.

For the compound `Cc1cc(OCc2nc(-c3cccnc3)c(-c3ccc(OC(F)(F)F)cc3)o2)ccc1OCC(=O)O`, the EC50 in assay [1] is above 10 µM; in assay [2], above 10 µM; in assay [3], 0.007 µM.

Take `CCCc1ccc(-c2oc(COc3ccc(OCC(=O)O)c(C)c3)nc2-c2ccc(OC)cc2)cc1`: the EC50 in assay [1] is above 10 µM; in assay [2] it was above 10 µM; in assay [3] it was 0.01 µM.

Consider `COc1ccc(-c2nc(COc3ccc(OCC(=O)O)c(C)c3)oc2-c2ccc(OC(F)(F)F)cc2)cc1`, for which the EC50 in assay [1] was above 10 µM; in assay [2], above 10 µM; in assay [3], 0.01 µM.

As to `Cc1cc(OCc2nc(-c3cncnc3)c(-c3ccc(OC(F)(F)F)cc3)s2)ccc1OCC(=O)O`, the EC50 in assay [1] was above 10 µM; in assay [2] it was above 10 µM; in assay [3] it was 0.059 µM.

Turning to `COc1ccc(-c2nc(COc3ccc4oc(C(=O)O)cc4c3)sc2-c2ccc(C(F)(F)F)cc2)cc1`, the EC50 in assay [1], in assay [2] and in assay [3] was above 10 µM each time.

Regarding `COc1ccc(-c2nc(COc3ccc(OCC(=O)O)c(C)c3)oc2-c2ccc(-c3ccccc3)cc2)cc1`, the figures for the EC50 in assay [1], in assay [2] and in assay [3] were above 10 µM, above 10 µM and 0.01 µM, respectively.

Take `CCCOc1ccc(-c2nc(COc3ccc(OCC(=O)O)c(C)c3)sc2-c2ccc(OC(F)(F)F)cc2)cc1`: the EC50 was above 10 µM in assay [1], above 10 µM in assay [2] and 0.035 µM in assay [3].

With `COc1ccc(-c2nc(COc3ccc(OCC(=O)O)cc3C)sc2-c2ccc(C(F)(F)F)cc2)cc1`, the EC50 in assay [1] was above 10 µM; in assay [2], above 10 µM; in assay [3], 2.26 µM.

For the compound `Cc1cc(OCc2nc(-c3ccc4c(c3)OCCO4)c(-c3ccc(OC(F)(F)F)cc3)s2)ccc1OCC(=O)O`, the figures for the EC50 in assay [1], in assay [2] and in assay [3] were above 10 µM, above 10 µM and 0.017 µM, respectively.

With `COc1ccc(-c2nc(COc3ccc(OCC(=O)O)c4ccccc34)sc2-c2ccc(C(F)(F)F)cc2)cc1`, the EC50 is above 10 µM in assay [1], above 10 µM in assay [2] and 2.93 µM in assay [3].

Take `COc1ccc(-c2nc(CSc3ccc(OCC(=O)O)c(C)c3)sc2-c2ccc(OC)cc2)cc1`: the results for the EC50 in assay [1], in assay [2] and in assay [3] were above 10 µM, above 10 µM and 0.47 µM, respectively.
